Patent US20250346592A1 (Celgene Corporation, priority 2022, published 2025)

Molecular target: hPAD4 enzyme (Homo sapiens (Human), UniProt Q9UM07)
Test: RFMS2 assay (RapidFire mass spectrometry, TSTGGRQGSHH peptide substrate)
Type: biochemical
Conditions: 35 nM recombinant human PAD4, 500 μM TSTGGRQGSHH peptide, 30 minutes at room temperature; read-out: RFMS 2 IC50
Method in brief: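 IC50 derived from RapidFire LC-MS/MS (positive ESI MRM) of substrate versus product after a 30 min room-temperature reaction stopped with 10% formic acid. Reaction contained 35 nM human PAD4, 500 μM peptide, 2 mM CaCl2, 5 mM DTT at pH 7.4, and compounds diluted 3-fold from 20 μM.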

hPAD4 enzyme, sequence (Q9UM07 whole entry): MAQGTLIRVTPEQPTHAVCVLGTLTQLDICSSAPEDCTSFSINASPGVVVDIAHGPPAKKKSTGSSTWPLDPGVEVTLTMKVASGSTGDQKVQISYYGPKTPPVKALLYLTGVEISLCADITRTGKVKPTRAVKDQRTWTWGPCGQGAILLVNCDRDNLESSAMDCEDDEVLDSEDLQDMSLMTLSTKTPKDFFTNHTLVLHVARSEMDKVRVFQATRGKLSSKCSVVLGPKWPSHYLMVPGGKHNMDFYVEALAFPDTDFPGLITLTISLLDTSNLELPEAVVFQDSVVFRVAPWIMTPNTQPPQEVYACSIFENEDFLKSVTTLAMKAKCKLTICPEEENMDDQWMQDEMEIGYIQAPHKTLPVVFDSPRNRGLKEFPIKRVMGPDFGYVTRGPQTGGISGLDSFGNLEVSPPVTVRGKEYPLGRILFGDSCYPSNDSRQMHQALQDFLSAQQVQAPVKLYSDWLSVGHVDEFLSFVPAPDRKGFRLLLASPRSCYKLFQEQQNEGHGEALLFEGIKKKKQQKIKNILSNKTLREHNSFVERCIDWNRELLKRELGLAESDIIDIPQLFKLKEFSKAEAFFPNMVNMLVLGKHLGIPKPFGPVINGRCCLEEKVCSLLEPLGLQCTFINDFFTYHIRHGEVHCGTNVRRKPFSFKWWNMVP

IC50 | Structure (SMILES)
> 1 µM | Cc1cc(Cn2c(-c3nc4cc5c(cc4n3C)CCN(C[C@H](N)CF)C5=O)cc3ccccc32)no1 [Example 100, (S)-6-(2-amino-3-fluoropropyl)-1-methyl-2-(1-((5-methylisoxazol-3-yl)methyl)-1H-indol-2-yl)-1,6,7,8-tetrahydro-5H-imidazo[4,5-g]isoquinolin-5-one]
0.101 to 0.5 µM | Cn1c(-c2cc3ccccc3n2CC2CCC2)nc2cc3c(cc21)CCN(C[C@H](N)CF)C3=O [Example 101, (S)-6-(2-amino-3-fluoropropyl)-2-(1-(cyclobutylmethyl)-1H-indol-2-yl)-1-methyl-1,6,7,8-tetrahydro-5H-imidazo[4,5-g]isoquinolin-5-one]
0.501 to 1 µM | COCCn1c(-c2nc3cc4c(cc3n2C)CCN(C[C@H](N)CF)C4=O)cc2ccc(OC)cc21 [Example 103, (S)-6-(2-amino-3-fluoropropyl)-2-(6-methoxy-1-(2-methoxyethyl)-1H-indol-2-yl)-1-methyl-1,6,7,8-tetrahydro-5H-imidazo[4,5-g]isoquinolin-5-one]
0.501 to 1 µM | COCCn1c(-c2nc3cc4c(cc3n2C)CCN(C[C@H](N)CF)C4=O)cc2ccc(Cl)nc21 [Example 104, (S)-6-(2-amino-3-fluoropropyl)-2-(6-chloro-1-(2-methoxyethyl)-1H-pyrrolo[2,3-b]pyridin-2-yl)-1-methyl-1,6,7,8-tetrahydro-5H-imidazo[4,5-g]isoquinolin-5-one]
0.501 to 1 µM | CCn1c(-c2nc3cc4c(cc3n2C)CCN(C[C@H](N)CF)C4=O)cc2cccc(OC)c21 [Example 107, (S)-6-(2-amino-3-fluoropropyl)-2-(1-ethyl-7-methoxy-1H-indol-2-yl)-1-methyl-1,6,7,8-tetrahydro-5H-imidazo[4,5-g]isoquinolin-5-one]
0.501 to 1 µM | CCn1c(-c2nc3cc4c(cc3n2C)CCN(C[C@H](N)CF)C4=O)cc2ccc(OC)nc21 [Example 108, (S)-6-(2-amino-3-fluoropropyl)-2-(1-ethyl-6-methoxy-1H-pyrrolo[2,3-b]pyridin-2-yl)-1-methyl-1,6,7,8-tetrahydro-5H-imidazo[4,5-g]isoquinolin-5-one]
> 1 µM | COCCn1c(-c2nc3cc4c(cc3n2C)CCN(C[C@H](N)CF)C4=O)cc2ccnc(OC)c21 [Example 110, (S)-6-(2-amino-3-fluoropropyl)-2-(7-methoxy-1-(2-methoxyethyl)-1H-pyrrolo[2,3-c]pyridin-2-yl)-1-methyl-1,6,7,8-tetrahydro-5H-imidazo[4,5-g]isoquinolin-5-one]
0.011 to 0.1 µM | COc1cccc2cc(-c3nc4cc5c(cc4n3C)CCN(C[C@H](N)CF)C5=O)n(Cc3ccno3)c12 [Example 111, (S)-6-(2-amino-3-fluoropropyl)-2-(1-(isoxazol-5-ylmethyl)-7-methoxy-1H-indol-2-yl)-1-methyl-1,6,7,8-tetrahydro-5H-imidazo[4,5-g]isoquinolin-5-one]
0.101 to 0.5 µM | COc1cccc2cc(-c3nc4cc5c(cc4n3C)CCN(C[C@H](N)CF)C5=O)n(Cc3cc[nH]n3)c12 [Example 115, (S)-2-(1-((1H-pyrazol-3-yl)methyl)-7-methoxy-1H-indol-2-yl)-6-(2-amino-3-fluoropropyl)-1-methyl-1,6,7,8-tetrahydro-5H-imidazo[4,5-g]isoquinolin-5-one]
0.101 to 0.5 µM | COc1cccc2cc(-c3nc4cc5c(cc4n3C)CCN(C[C@H](N)CF)C5=O)n(Cc3nnco3)c12 [Example 116, (S)-2-(1-((1,3,4-oxadiazol-2-yl)methyl)-7-methoxy-1H-indol-2-yl)-6-(2-amino-3-fluoropropyl)-1-methyl-1,6,7,8-tetrahydro-5H-imidazo[4,5-g]isoquinolin-5-one]
> 1 µM | Cn1c(-c2cc3cccnc3n2Cc2ccno2)nc2cc3c(cc21)CCN(C[C@H](N)CF)C3=O [Example 121, (S)-6-(2-amino-3-fluoropropyl)-2-(1-(isoxazol-5-ylmethyl)-1H-pyrrolo[2,3-b]pyridin-2-yl)-1-methyl-1,6,7,8-tetrahydro-5H-imidazo[4,5-g]isoquinolin-5-one]
0.101 to 0.5 µM | COc1cccc2cc(-c3nc4cc5c(cc4n3C)CCN(C[C@H](N)CF)C5=O)n(Cc3nc(C)no3)c12 [Example 129, (S)-6-(2-amino-3-fluoropropyl)-2-(7-methoxy-1-((3-methyl-1,2,4-oxadiazol-5-yl)methyl)-1H-indol-2-yl)-1-methyl-1,6,7,8-tetrahydro-5H-imidazo[4,5-g]isoquinolin-5-one]
0.101 to 0.5 µM | COc1cccc2cc(-c3nc4cc5c(cc4n3C)CCN(C[C@H](N)CF)C5=O)n(C[C@H]3CCCO3)c12 [Example 132, 6-((S)-2-amino-3-fluoropropyl)-2-(7-methoxy-1-(((R)-tetrahydrofuran-2-yl)methyl)-1H-indol-2-yl)-1-methyl-1,6,7,8-tetrahydro-5H-imidazo[4,5-g]isoquinolin-5-one]

More lines, now with the values behind:

Structure (SMILES) | IC50
Cc1cc(Cn2c(-c3nc4cc5c(cc4n3C)CCN(C[C@H](N)CF)C5=O)cc3ccccc32)on1 [Example 97, (S)-6-(2-amino-3-fluoropropyl)-1-methyl-2-(1-((3-methylisoxazol-5-yl)methyl)-1H-indol-2-yl)-1,6,7,8-tetrahydro-5H-imidazo[4,5-g]isoquinolin-5-one] | 0.101 to 0.5 µM
Cn1c(-c2cc3ccccc3n2Cc2ccon2)nc2cc3c(cc21)CCN(C[C@H](N)CF)C3=O [Example 98, (S)-6-(2-amino-3-fluoropropyl)-2-(1-(isoxazol-3-ylmethyl)-1H-indol-2-yl)-1-methyl-1,6,7,8-tetrahydro-5H-imidazo[4,5-g]isoquinolin-5-one] | > 1 µM
Cc1nnc(Cn2c(-c3nc4cc5c(cc4n3C)CCN(C[C@H](N)CF)C5=O)cc3ccccc32)o1 [Example 99, (S)-6-(2-amino-3-fluoropropyl)-1-methyl-2-(1-((5-methyl-1,3,4-oxadiazol-2-yl)methyl)-1H-indol-2-yl)-1,6,7,8-tetrahydro-5H-imidazo[4,5-g]isoquinolin-5-one] | > 1 µM
COCCn1c(-c2nc3cc4c(cc3n2C)CCN(C[C@H](N)CF)C4=O)cc2ccc(OC)nc21 [Example 105, (S)-6-(2-amino-3-fluoropropyl)-2-(6-methoxy-1-(2-methoxyethyl)-1H-pyrrolo[2,3-b]pyridin-2-yl)-1-methyl-1,6,7,8-tetrahydro-5H-imidazo[4,5-g]isoquinolin-5-one] | > 1 µM
COCCn1c(-c2nc3cc4c(cc3n2C)CCN(C[C@H](N)CF)C4=O)cc2cccnc21 [Example 106, (S)-6-(2-amino-3-fluoropropyl)-2-(1-(2-methoxyethyl)-1H-pyrrolo[2,3-b]pyridin-2-yl)-1-methyl-1,6,7,8-tetrahydro-5H-imidazo[4,5-g]isoquinolin-5-one] | > 1 µM
COc1cccc2cc(-c3nc4cc5c(cc4n3C)CCN(C[C@H](N)CF)C5=O)n(C(C)C)c12 [Example 109] | > 1 µM
COc1ccc2cc(-c3nc4cc5c(cc4n3C)CCN(C[C@H](N)CF)C5=O)n(Cc3ccno3)c2c1 [Example 112, (S)-6-(2-amino-3-fluoropropyl)-2-(1-(isoxazol-5-ylmethyl)-6-methoxy-1H-indol-2-yl)-1-methyl-1,6,7,8-tetrahydro-5H-imidazo[4,5-g]isoquinolin-5-one] | 0.101 to 0.5 µM
COc1cccc2cc(-c3nc4cc5c(cc4n3C)CCN(C[C@H](N)CF)C5=O)n(Cc3cn(C)cn3)c12 [Example 114, (S)-6-(2-amino-3-fluoropropyl)-2-(7-methoxy-1-((1-methyl-1H-imidazol-4-yl)methyl)-1H-indol-2-yl)-1-methyl-1,6,7,8-tetrahydro-5H-imidazo[4,5-g]isoquinolin-5-one] | 0.501 to 1 µM
COc1cccc2cc(-c3nc4cc5c(cc4n3C)CCN(C[C@H](N)CF)C5=O)n(Cc3cnco3)c12 [Example 117, (S)-6-(2-amino-3-fluoropropyl)-2-(7-methoxy-1-(oxazol-5-ylmethyl)-1H-indol-2-yl)-1-methyl-1,6,7,8-tetrahydro-5H-imidazo[4,5-g]isoquinolin-5-one] | 0.101 to 0.5 µM
COc1cccc2cc(-c3nc4cc5c(cc4n3C)CCN(C[C@H](N)CF)C5=O)n(Cc3ccns3)c12 [Example 118, (S)-6-(2-amino-3-fluoropropyl)-2-(1-(isothiazol-5-ylmethyl)-7-methoxy-1H-indol-2-yl)-1-methyl-1,6,7,8-tetrahydro-5H-imidazo[4,5-g]isoquinolin-5-one] | 0.011 to 0.1 µM
COc1cccc2cc(-c3nc4cc5c(cc4n3C)CCN(C[C@H](N)CF)C5=O)n(Cc3ncno3)c12 [Example 120, (S)-2-(1-((1,2,4-oxadiazol-5-yl)methyl)-7-methoxy-1H-indol-2-yl)-6-(2-amino-3-fluoropropyl)-1-methyl-1,6,7,8-tetrahydro-5H-imidazo[4,5-g]isoquinolin-5-one] | 0.101 to 0.5 µM
COc1cccc2cc(-c3nc4cc5c(cc4n3C)CCN(C[C@H](N)CF)C5=O)n(Cc3ncc(C)o3)c12 [Example 125, (S)-6-(2-amino-3-fluoropropyl)-2-(7-methoxy-1-((5-methyloxazol-2-yl)methyl)-1H-indol-2-yl)-1-methyl-1,6,7,8-tetrahydro-5H-imidazo[4,5-g]isoquinolin-5-one] | 0.101 to 0.5 µM
COc1cccc2cc(-c3nc4cc5c(cc4n3C)CCN(C[C@H](N)CF)C5=O)n(Cc3cccnn3)c12 [Example 126, (S)-6-(2-amino-3-fluoropropyl)-2-(7-methoxy-1-(pyridazin-3-ylmethyl)-1H-indol-2-yl)-1-methyl-1,6,7,8-tetrahydro-5H-imidazo[4,5-g]isoquinolin-5-one] | 0.101 to 0.5 µM
COc1cccc2cc(-c3nc4cc5c(cc4n3C)CCN(C[C@H](N)CF)C5=O)n(Cc3cnccn3)c12 [Example 128, (S)-6-(2-amino-3-fluoropropyl)-2-(7-methoxy-1-(pyrazin-2-ylmethyl)-1H-indol-2-yl)-1-methyl-1,6,7,8-tetrahydro-5H-imidazo[4,5-g]isoquinolin-5-one] | 0.101 to 0.5 µM
